According to patent publication US20010051652A1, “Method of treating paralysis of the extremities caused by cerebral infarction” (Ajinomoto Co., Inc., priority 1999, published 2001):

Key:
male Wister rats [1] = assay: Clockwise rotation after middle cerebral artery ischemia-reperfusion; type: in vivo, rat; conditions: for Clockwise rotation, during ischemia (rats affected/total): baseline before melatonin administration
Source text: Eight to ten-week-old male Wister rats weighing of 250 to 300 g were used. Under halothane anesthesia, a 24 G (24 gauge) plug was inserted from a right external carotid artery of each rat so as to arrive to a starting site of its middle cerebral artery of the circle of Willis through its internal carotid artery. Immediately, the anesthesia was stopped, and the rat was dehypnotized. It was confirmed that the rat rotated clockwise, had ischemia, and had paralysis of its left upper limb. After one hour, the plug was removed from the rat under halothane anesthesia, and the blood flow was thereby reperfused. In the melatonin administration group, 1 ml of a physiological saline solution containing 6 mg/kg of melatonin was injected using a probe into the stomach of each rat each day for 10 days starting 24 hours after the reperfusion. In the control group, 1 ml of a physiological saline solution was similarly injected into each rat. After 19 days, the presence of adduction/pronation of the left upper limb and the clockwise rotation were determined for each rat. To assess the clockwise rotation, each rat was placed on a round plate 2 m in diameter for 5 minutes. If the rat had paralysis of the left upper limb, it rotated clockwise. In an experiment similar to that as described in Example 1, the adduction/pronation of the left upper limb and the clockwise rotation were determined 11 days after the ischemic incidence.

male Wister rats [2] = assay: Adduction/pronation of the left upper limb after middle cerebral artery ischemia-reperfusion; type: in vivo, rat; conditions: for Adduction/pronation, during ischemia (rats affected/total): baseline before melatonin administration
Source text: Eight to ten-week-old male Wister rats weighing of 250 to 300 g were used. Under halothane anesthesia, a 24 G (24 gauge) plug was inserted from a right external carotid artery of each rat so as to arrive to a starting site of its middle cerebral artery of the circle of Willis through its internal carotid artery. Immediately, the anesthesia was stopped, and the rat was dehypnotized. It was confirmed that the rat rotated clockwise, had ischemia, and had paralysis of its left upper limb. After one hour, the plug was removed from the rat under halothane anesthesia, and the blood flow was thereby reperfused. In the melatonin administration group, 1 ml of a physiological saline solution containing 6 mg/kg of melatonin was injected using a probe into the stomach of each rat each day for 10 days starting 24 hours after the reperfusion. In the control group, 1 ml of a physiological saline solution was similarly injected into each rat. After 19 days, the presence of adduction/pronation of the left upper limb and the clockwise rotation were determined for each rat. To assess the adduction/pronation of the left upper limb, each rat was hung via its tail, and the movement of the left upper limb was observed. If the rat could not voluntarily move the left upper limb, and had paralysis of the left upper limb, the left upper limb was considered to show adduction/pronation. In an experiment similar to that as described in Example 1, the adduction/pronation of the left upper limb and the clockwise rotation were determined 11 days after the ischemic incidence.

CAl hippocampal neurons = conditions: intraperitoneally administered, especially prior to cerebral ischemia or during reperfusion; cited from earlier work
male Wister rats [3] = assay: Area of the cerebral infarcted lesion; type: in vivo, rat; conditions: Example 3; rats of Example 2, after 11 days; section showing maximum lesion
Protocol: Using the rats from the experiment of Example 2, the area of the cerebral infarcted lesion in each rat after 11 days was determined. The area of the cerebral infarcted lesion was determined by preparing a consecutive section of 50 μm from a cerebral infarcted region of about 3 mm and subjecting the section showing a maximum lesion to the NIH measurement program to determine the area of the maximum lesion.

[4] = cited from earlier work
[5] = Example 1, 6 mg/kg into the stomach each day for 10 days starting 24 hours after reperfusion
[6] = Example 2, experiment similar to Example 1

## COc1ccc2[nH]cc(CCNC(C)=O)c2c1 [Melatonin, N-[2-(5-methoxy-1H-indol-3-yl)ethyl]acetamide]
Male Wister rats [1]; [5]
  Clockwise rotation, 19 days after ischemia (rats affected/total): 1/4
Male Wister rats [1]; Example 1
  Clockwise rotation, during ischemia (rats affected/total): 4/4
Male Wister rats [1]; Example 2
  Clockwise rotation, during ischemia (rats affected/total): 7/7
Male Wister rats [1]; [6]
  Clockwise rotation, 11 days after ischemia (rats affected/total): 0/7
Male Wister rats [2]; [5]
  Adduction/pronation, 19 days after ischemia (rats affected/total): 1/4
Male Wister rats [2]; Example 1
  Adduction/pronation, during ischemia (rats affected/total): 4/4
Male Wister rats [2]; Example 2
  Adduction/pronation, during ischemia (rats affected/total): 7/7
Male Wister rats [2]; [6]
  Adduction/pronation, 11 days after ischemia (rats affected/total): 3/7
CAl hippocampal neurons
  protection of CAl hippocampal neurons against ischemic injury: protects CAl hippocampal neurons against ischemic injury
Male Wister rats [3]
  Area of the infarcted lesion, cerebral cortex: 5.47 mm^2
  Area of the infarcted lesion, striatum: 7.15 mm^2
[4]; intravenously administered
  passage into the brain: pass into the brain
[4]; orally administered
  passage through the blood-brain barrier: passes through the blood-brain barrier
